For series [1], the system named is hepatic disorder caused by carbon tetrachloride. In words: Effect of suppressing hepatic disorder caused by carbon tetrachloride. The class given is in vivo, mice. The conditions noted are these: mean of 5; for Liver disorder index: mice (dd-strain), 250 mg/kg oral in olive oil, 6 h before carbon tetrachloride 0.05 ml/kg oral, visual observation 24 h after, scale 0 healthy, 2 slightly affected, 4 evident disorder, 6 serious disorder; for p-GPT (K.U.): plasma glutamic pyruvic transaminase activity, Reitman-Frankel, mice, 250 mg/kg oral, 6 h before carbon tetrachloride 0.05 ml/kg, 24 h after, values of 2,100 units or higher counted as 2,100. As for the experimental part:
Six hours thereafter, carbon tetrachloride was orally administered in a proportion of 0.05 ml/kg. The animals were sacrificed 24 hours after the administration of carbon tetrachloride, and the extent of liver disorder was examined by visual observation. On the other hand, blood was collected from the animal at the time of the sacrifice, and centrifuged to obtain plasma. The plasma glutamic piruvic transaminase (GPT) activity was determined according to the method of Reitman-Frankel. The activity was expressed in terms of Karmen Units (K.U.). The conditions of the liver were expressed in terms of liver disorder index as follows. […] Mice were used in groups of five and the results of test were represented by the mean value. When the GPT activity was 2,100 units or higher, […], and the activity was calculated as 2,100 units for reasons of convenience.

A short description of series [2]: Acute oral toxicity (LD50). The note with it: in vivo, male rat. Here is the method: For example, LD50 value (acute oral toxicity to male rat) of the compound No. 8 is more than 1,000 mg/kg.

Turning to `CC(=O)C(C(=O)c1cccc(C)c1)=C1SCS1` [Compound No. 2], in series [1], the Liver disorder index is 0.8 and the “p-GPT (K.U.)” value was determined as 22 K.U.
For the molecule `CC(=O)C(C(=O)c1ccc2ccccc2c1)=C1SCS1` [compound 32], in series [1], the Liver disorder index came to 0.8 and the “p-GPT (K.U.)” value was found to be 18 K.U.
The like results for `Cc1cccc(C(=O)C(C(=O)c2ccccc2)=C2SCS2)c1` [compound 30] were, in that order, 0.6 and 19 K.U.
The like results for `CC(=O)C(C(=O)c1ccc(Cl)cc1)=C1SCS1` [compound 14] were, in that order, 0.2 and 73 K.U.
In the case of `CC(=O)C(C(=O)c1ccc(F)cc1)=C1SCS1` [compound 17], in series [1], the Liver disorder index is 0.4 and the “p-GPT (K.U.)” value is 15 K.U.
The like results for `CC(=O)C(C(=O)c1ccc(OC(C)C)cc1)=C1SCS1` [compound 29] were, in that order, 3.4 and 233 K.U.
Turning to `COc1ccc(C(=O)C(C(C)=O)=C2SCS2)cc1` [compound 7], in series [1], the Liver disorder index worked out at 1.2 and the “p-GPT (K.U.)” value is recorded as 19 K.U.
For `CC(C)C(=O)C(C(=O)c1ccccc1Cl)=C1SCS1` [compound 28], in that order: 1.0 and 42 K.U.
For `CC(=O)C(C(=O)c1ccc(OCc2ccc(Cl)cc2)cc1)=C1SCS1` [compound 12], in series [1], the Liver disorder index is 2.8 and the “p-GPT (K.U.)” value was determined as 1739 K.U.
With `O=C(C(C(=O)c1ccc(F)cc1)=C1SCS1)c1ccccc1` [compound 31, 1-(1,3-dithietan-2-ylidene)-1-(4-fluorobenzoyl)acetophenone], in series [1], the Liver disorder index is reported as 0.4 and the “p-GPT (K.U.)” value is 16 K.U.
Regarding `COc1cc(C(=O)C(C(C)=O)=C2SCS2)cc(OC)c1OC` [compound 10], in series [1], the Liver disorder index was 1.8 and the “p-GPT (K.U.)” value is 413 K.U.
As to `CC(=O)C(C(=O)c1cccs1)=C1SCS1` [compound 19, 1-(1,3-dithietan-2-ylidene)-1-(2-thiophene-carbonyl)acetone], in series [1], the Liver disorder index was found to be 0.2 and the “p-GPT (K.U.)” value is 16 K.U.
In the case of `CC(=O)C(C(=O)c1ccccc1)=C1SCS1` [Compound No. 1], in series [1], the Liver disorder index was determined as 0.7 and the “p-GPT (K.U.)” value worked out at 23 K.U.
Consider `CC(=O)C(C(=O)c1ccco1)=C1SCS1` [compound 20], for which, in series [1], the Liver disorder index stood at 0 and the “p-GPT (K.U.)” value is reported as 22 K.U.
The like results for `CC(=O)C(C(C)=O)=C1SC(C)S1` (stereo not shown) [compound 25] were, in that order, 1.2 and 205 K.U.
For `CC(=O)C(C(=O)c1ccccc1)=C1SC(c2ccccc2)S1` (stereo not shown) [compound 23], in that order: 6.6 and 1668 K.U.
`CC(=O)C(C(C)=O)=C1SCS1` [compound 18, 1-acetyl-1-(1,3-dithietan-2-ylidene) acetone]: in series [1], the Liver disorder index is on record as 1.6 and the “p-GPT (K.U.)” value stood at 1142 K.U.
For `CC(=O)C(C(=O)c1ccccc1Cl)=C1SCS1` [compound 13], in that order: 0.8 and 13 K.U.
As to `COc1ccc(C(=O)C(C(C)=O)=C2SCS2)cc1OC` [compound 9], in series [1], the Liver disorder index is 0.6 and the “p-GPT (K.U.)” value is given as 11 K.U.
The like results for `COc1cccc(C(=O)C(C(C)=O)=C2SC(c3ccccc3)S2)c1` (stereo not shown) [compound 24] were, in that order, 3.8 and 1654 K.U.
The like results for `CC(=O)C(C(=O)c1ccc(Cl)cc1Cl)=C1SCS1` [Compound No. 15] were, in that order, 0.5 and 203 K.U.
The like results for `CC(=O)C(C(=O)c1ccc(C)c(C)c1)=C1SCS1` [compound 4, 1-(3,4-dimethylbenzoyl)-1-(1,3-dithietan-2-ylidene)acetone] were, in that order, 0.6 and 23 K.U.
With `CC(=O)C(C(=O)c1ccc(OCc2ccccc2)cc1)=C1SCS1` [compound 11], in series [1], the Liver disorder index came out at 1.6 and the “p-GPT (K.U.)” value came out at 884 K.U.
For `CC(=O)C(C(=O)c1cccnc1)=C1SCS1` [compound 21], in that order: 0.2 and 14 K.U.
`COc1ccccc1C(=O)C(C(C)=O)=C1SCS1` [Compound No. 5, 1-(1,3-dithietan-2-ylidene)-1-(2-methoxybenzoyl)acetone]: in series [1], the Liver disorder index was 1.0 and the “p-GPT (K.U.)” value came out at 12 K.U.
Regarding `O=C(C(C(=O)c1ccccc1)=C1SCS1)c1ccccc1` [compound 22], in series [1], the Liver disorder index stood at 0.5 and the “p-GPT (K.U.)” value is recorded as 71 K.U.
For `CC(=O)C(C(=O)c1ccc(Br)cc1)=C1SCS1` [compound 16, 1-(4-bromobenzoyl)-1-(1,3-dithietan-2-ylidene)acetone], in series [1], the Liver disorder index is 0 and the “p-GPT (K.U.)” value is reported as 15.8 K.U.
The like results for `CC(=O)C(C(=O)c1ccc(C)cc1)=C1SCS1` [compound 3] were, in that order, 1.4 and 14 K.U.
As usually defined, the LD50 is the dose expected to kill half of the subjects tested. Higher therefore signals lower toxicity. With `COc1ccc(C(=O)C(C(C)=O)=C2SCS2)c(OC)c1` [Compound No. 8], the median lethal dose (LD50) in series [2] is more than 1000 mg/kg. Further, in series [1], the Liver disorder index stood at 0.6 and the “p-GPT (K.U.)” value is on record as 54 K.U.
Regarding `COc1cccc(C(=O)C(C(C)=O)=C2SCS2)c1` [compound 6], in series [1], the Liver disorder index is given as 2.0 and the “p-GPT (K.U.)” value is on record as 16 K.U.

The values above are taken from patent EP0234480A2, “1, 3-diketone derivatives and their use” (NIHON NOHYAKU CO., LTD., priority 1986, dated 1987).
